Experimental data: US9783518B2, “Therapeutic agent and treatment method for ameliorating uremia” (Toray Industries, Inc., priority 2005, dated 2017)
Entries after “also recorded” stand apart in the source; their conditions may differ.

What was measured:
[1] = tested on: cats with chronic renal failure; test: Blood biochemical analysis and urinalysis (BUN, serum Cre, glucose) in cats with chronic renal failure; assay type: in vivo, cat
Protocol: (§1) Testing methods for the patients showing uremia caused by chronic renal failure, employed in Example 4 or later, will now be described. The criteria and evaluation items for the cats and dogs with chronic renal failure are as follows: Diagnosis of uremia and chronic renal failure were performed totally taking clinical findings (including findings of uremia) and the results of the blood test, blood biochemical analysis and urinalysis into consideration. As the clinical findings of uremia, existence and degree of polydipsia and diuresis, dehydration, anorexia, weight loss, vomiting symptom and state of dehydration were observed. Existence of chronic renal failure was judged based on the serum Cre value as generally employed. As reference data for grasping the degree of progress of chronic renal failure, BUN value was also monitored.
In the blood test, RBC, WBC, PCV, Hg and PLT were measured. In the blood biochemical analysis, TP, Tcho, AST, ALT, ALP, Tbil, BUN, creatinine, calcium, inorganic phosphorus, glucose, sodium ion, potassium ion and chloride ion were measured. In the urinalysis, protein amount, pH, occult blood, bilirubin and glucose were measured. To eliminate the circadian rhythm and influence by meals on the values of blood biochemical markers, every blood collection was carried out in the morning before feeding (at fasting).
As a more specific criterion for chronic renal failure in cats and dogs in the present Examples, a serum Cre value of 1.4 mg/dL in the blood test was employed. Serum Cre value was measured by creatinine deaminase-amidohydrolase method, and the BUN value as reference data for grasping the degree of progress of chronic renal failure was measured by urease-GLDH method.
Administration of beraprost sodium was conducted by orally administering the tablet with a content of 150 μg/tablet (Example 1) twice a day (300 μg/head/day). The administration was conducted every day and continued basically for 6 months, and in cases where the owner desired, the administration was continued even after the test period. The Examples of the present invention include both cases where the dosing period was less than 6 months and more than 6 months.

[2] = tested on: dog with chronic renal failure; test: Clinical score of uremic symptoms in dog with chronic renal failure (Case-H); assay type: in vivo
Protocol: as §1
Evaluation of degree of improvement of the uremic symptoms was carried out as follows: From the clinical symptoms related to uremia, activity and appetite, which are unlikely to be overlooked and which can be observed universally from before to after the test period, were selected. […] The evaluation was carried out based on the total points (full points were 5 points). Thus, a higher point indicates more improvements in the clinical symptoms. […]

[3] = tested on: dog with chronic renal failure; test: BUN and serum Cre in dog with chronic renal failure (Case-H); assay type: in vivo; settings: 150 μg/capsule oral twice a day alone
Protocol: In view of this, after obtaining consent by the client, treatment with Covalzin was stopped, and switched to administration of beraprost sodium alone. Beraprost sodium was diluted with polyethylene glycol (Wako) to attain a dose of 150 μg/capsule, and was divided into capsules (size 5 Shionogi Qualicaps). Beraprost sodium was orally administered twice a day at fasting. […] In the above-described series of therapy, feeding of a formula meal and infusion were not performed at all.

[4] = tested on: rats which spontaneously develops hypertension; settings: administered together with saline and special diet; cited from earlier work
[5] = Case-A, 150 μg oral BID alone, from start of administration
[6] = Case-A, 6 months after termination (12 months after start)
[7] = Case-B, daily administration for 1 and half years
[8] = Case-E, combination therapy, first about 3 months
[9] = Case-G cat, before the administration (baseline)

## CC#CC[C@@H](C)[C@H](O)/C=C/[C@@H]1[C@H]2c3cccc(CCCC(=O)[O-])c3O[C@H]2C[C@H]1O.[Na+] (mixture of isomers) [beraprost sodium, Sodium rac-(1R,2R,3aS,8bS)-2,3,3a,8b-tetrahydro-2-hydroxy-1-[(E)-(3S,4RS)-3-hydroxy-4-methyloct-1-en-6-ynyl]-1H-cyclopenta[b][1]benzofuran-5-butanoate]
[1]; Case-A, 150 μg oral BID alone
  time at which BUN reached the minimum value: second
  time at which serum Cre reached the minimum value: fifth
[1]; [5]
  BUN: decreased
  serum Cre: decreased
[1]; [6]
  BUN at follow up: remained within the normal ranges; also recorded: maintained at normal levels
  serum Cre value at follow up: remained within the normal ranges; also recorded: maintained at normal levels
[1]; [7]
  BUN: maintained at the normal levels
  Cre: maintained at the normal levels
[1]; Case-B, first to second month
  BUN value: tendency that BUN value and serum Cre value increase
  serum Cre value: tendency that BUN value and serum Cre value increase
[1]; Case-B, from the fourth month
  BUN value: sharply decreased to the normal values
  serum Cre value: sharply decreased to the normal values
[1]; Case-C, during administration
  BUN value: continuously increased
  serum Cre value: did not change or slightly increased
[1]; Case-D, after administration
  BUN value: continuously increased
  serum Cre value: kept a high value
[1]; Case-E, 7th to 8th month
  BUN value: largely increased
  Cre value: kept high
[1]; [8]
  BUN value: continuously increased
  serum Cre value: kept high
[1]; Case-F, after start of beraprost sodium
  BUN value: kept high
[1]; Case-F, throughout the entire period
  serum Cre value: continuously increased
[1]; [9]
  BUN value: 52.2 mg/dL
  serum Cre value: 2.56 mg/dL
[2]; 150 μg/capsule oral twice a day alone, first month, 3 points before
  clinical score (full points 5): 4 points
[2]; after start of beraprost sodium alone
  uremic symptoms: quickly remitted and ameliorated
[3]
  BUN: did not almost change
  serum Cre value: continuously increased
[4]
  onset of glomerulonephritis (urinary protein excretion, glomerulus tissue image): prevented
